This note sets out measurements from ChEMBL document CHEMBL1201862, “PubChem BioAssay data set” (2004).

Among the test systems are A498; A549; CCRF-CEM; DLD-1; DMS-114; EKVX; HCC 2998; HL-60; KM-20L2; KM12; NCI-H460; OVCAR-3; OVCAR-5; OVCAR-8; SF-539; SNB-75; SW-620; UACC-62; DU-145.
Common to all, as to test: inhibition of tumour cell growth, NCI panel, 48 h

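Cultured in 96-well plates, cells were exposed to test compound for 48 hours across five concentrations. GI50: concentration for 50% inhibition of growth.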 The source made the active and inactive calls. Cut-off read from the data, not from the text of the source: active = GI50 up to about 1.1 µM and inactive = higher.

Regarding `C=C(CO)CC(/C=C(\C)CC/C=C(\C)CCl)OC(C)=O` (centres undefined), the GI50 in the test on A498, in the test on A549, in the test with CCRF-CEM, in the test with DLD-1, with DMS-114 and in the test on EKVX was > 100 µM (inactive) throughout. Further, the GI50 with HCC 2998, in the test with HL-60, in the test with KM-20L2, in the test with KM12, with NCI-H460 and in the test with OVCAR-3 was > 100 µM (inactive) in each case. Moreover, the GI50 in the test with OVCAR-5, with OVCAR-8, in the test on SF-539, with SNB-75, with SW-620 and in the test with UACC-62 was > 100 µM (inactive) throughout.

For `CC1=NN(C(=O)Nc2ccc(Cl)cc2)C(=O)C2CCC(=O)N12` (centres undefined), the GI50 in the test on A498 was > 100 µM (inactive); with A549 it was 49.3 µM (inactive); in the test on CCRF-CEM it was > 100 µM (inactive); with DLD-1, > 100 µM (inactive); with DMS-114, > 100 µM (inactive); with EKVX, > 100 µM (inactive). Moreover, the GI50 in the test with HCC 2998 was > 100 µM (inactive); with HL-60, 61.7 µM (inactive); with KM-20L2, 4.38 µM (inactive); with KM12 it was 28.9 µM (inactive); in the test on NCI-H460, 28.3 µM (inactive); in the test on OVCAR-3 it was > 100 µM (inactive). Besides, the GI50 was > 100 µM (inactive) in the test on OVCAR-8; > 100 µM (inactive) in the test on SF-539; > 100 µM (inactive) with SNB-75; > 100 µM (inactive) with SW-620; 2.2 µM (inactive) in the test with UACC-62.

Regarding `CCOC(=O)c1cnccc1CC1(C#N)c2ccccc2C=CN1C(=O)c1ccccc1` (centres undefined), the GI50 with A498 is 96.4 µM (inactive); in the test with A549, 34.4 µM (inactive); with CCRF-CEM, 40.3 µM (inactive); with DU-145 it was 35.6 µM (inactive); with EKVX it was 36.5 µM (inactive); with HCC 2998, 30.3 µM (inactive). Moreover, the GI50 in the test with HL-60 is 18.5 µM (inactive); in the test on KM12, 13.3 µM (inactive); in the test on NCI-H460, 23.4 µM (inactive); in the test on OVCAR-3, 31.6 µM (inactive); with OVCAR-5, 80.2 µM (inactive); in the test on OVCAR-8 it was 16.2 µM (inactive). The GI50 with SF-539 was 30.1 µM (inactive); in the test on SNB-75 it was 12.9 µM (inactive); in the test on SW-620, 47.3 µM (inactive); with UACC-62 it was 23.9 µM (inactive).

As to `N#[N+]c1cc2c(cc1Br)-c1ccccc1C2`, the GI50 with A498 is > 100 µM (inactive); in the test on A549 it was 95.9 µM (inactive); in the test with CCRF-CEM, 0.586 µM (active); in the test on DU-145, > 100 µM (inactive); in the test with EKVX, 24.5 µM (inactive); in the test on HCC 2998 it was 85.5 µM (inactive). In addition, the GI50 was 51.4 µM (inactive) with HL-60; > 100 µM (inactive) in the test with KM12; > 100 µM (inactive) with NCI-H460; 46.9 µM (inactive) in the test on OVCAR-3; > 100 µM (inactive) with OVCAR-5; 15.6 µM (inactive) in the test on OVCAR-8. The GI50 with SF-539 was > 100 µM (inactive); in the test with SNB-75 it was > 100 µM (inactive); with SW-620, > 100 µM (inactive); with UACC-62, 44.9 µM (inactive).

On to `Nc1ccc(-c2nc3cc(F)ccc3s2)cc1CO`, for which the GI50 is 0.0102 µM (active) with A498; > 69 µM (inactive) in the test on A549; 89.5 µM (inactive) in the test on CCRF-CEM; > 78.9 µM (inactive) in the test on DU-145; 17.8 µM (inactive) in the test with EKVX; 0.313 µM (active) in the test with HCC 2998. The GI50 with HL-60 is > 76.9 µM (inactive); in the test with KM12, > 100 µM (inactive); with NCI-H460, 3.04 µM (inactive); in the test with OVCAR-3, 36.2 µM (inactive); with OVCAR-5, 60.8 µM (inactive); in the test with OVCAR-8, 28.6 µM (inactive). Besides, the GI50 in the test with SF-539 is 20.1 µM (inactive); in the test on SNB-75 it was 19.2 µM (inactive); with SW-620, > 100 µM (inactive); in the test with UACC-62 it was 19.4 µM (inactive).

Turning to `Cc1[nH]c2ncn3[nH]c(=S)nc3c2c1Cc1ccccc1`, the GI50 is > 100 µM (inactive) in the test on A498; > 100 µM (inactive) in the test with A549; 76.4 µM (inactive) in the test with CCRF-CEM; > 100 µM (inactive) in the test with DU-145; > 100 µM (inactive) in the test on EKVX; 92.5 µM (inactive) with HCC 2998. The GI50 with HL-60, in the test on KM12, in the test on NCI-H460, in the test with OVCAR-3, with OVCAR-5 and with OVCAR-8 was > 100 µM (inactive) throughout. Further, the GI50 in the test with SF-539 is > 100 µM (inactive); with SNB-75, 25.2 µM (inactive); in the test with SW-620, > 100 µM (inactive); in the test on UACC-62, > 100 µM (inactive).

With `CC(=O)O[C@H]1CC[C@@]2(C)C(=C[C@H](c3ccc(O)cc3)[C@H]3[C@@H]4CC[C@H](OC(C)=O)[C@@]4(C)CC[C@@H]32)C1`, the GI50 is 0.51 µM (active) with A498; 16.3 µM (inactive) in the test with A549; 21.3 µM (inactive) with CCRF-CEM; 20.7 µM (inactive) with DU-145; 20.8 µM (inactive) with EKVX; 20.5 µM (inactive) with HCC 2998. Besides, the GI50 with HL-60 was 19.6 µM (inactive); in the test with KM12, 16.6 µM (inactive); with NCI-H460 it was 20.5 µM (inactive); with OVCAR-3 it was 17.3 µM (inactive); in the test on OVCAR-5, 23.7 µM (inactive); with OVCAR-8, 16.9 µM (inactive). Further, the GI50 was 21 µM (inactive) in the test with SF-539, 24.7 µM (inactive) with SNB-75, 22 µM (inactive) in the test with SW-620 and 10.4 µM (inactive) in the test on UACC-62.

Regarding `CCOc1ccc(NC(=O)C2=C(C)NC(C)=C(C(=O)Nc3ccc(OCC)cc3)C2c2ccc(O)c(OC)c2)cc1`, the GI50 in the test on A498 was 19.3 µM (inactive); in the test with A549, > 100 µM (inactive); with CCRF-CEM, 46.9 µM (inactive); in the test on DLD-1, 96.2 µM (inactive); with DMS-114, 56.5 µM (inactive); in the test on EKVX it was > 100 µM (inactive). Also, the GI50 in the test on HCC 2998 is 2.35 µM (inactive); in the test on HL-60, 42.7 µM (inactive); with KM-20L2, > 100 µM (inactive); with KM12 it was 47.9 µM (inactive); with NCI-H460, 80.4 µM (inactive); in the test with OVCAR-3, > 100 µM (inactive). The GI50 in the test on OVCAR-5 is > 100 µM (inactive); in the test on OVCAR-8, 87.3 µM (inactive); in the test on SF-539 it was 28.8 µM (inactive); in the test with SNB-75, 14.3 µM (inactive); with SW-620, > 100 µM (inactive).

As to `COC(=O)C1=C(C)NC(=O)N2[C@@H](CCOCc3ccccc3)CC[C@@H]12`, the GI50 in the test on A498, in the test with A549, in the test with CCRF-CEM, in the test with DU-145, in the test with EKVX and in the test on HCC 2998 was > 50 µM (inactive) in each case. The GI50 with HL-60, in the test on KM12, in the test on NCI-H460, in the test with OVCAR-3, in the test with OVCAR-5 and in the test on OVCAR-8 was > 50 µM (inactive) each time. For the same compound, the GI50 was > 50 µM (inactive) in the test on SF-539, 25 µM (inactive) in the test on SNB-75, > 50 µM (inactive) in the test with SW-620 and > 50 µM (inactive) with UACC-62.

As to `O=C1OCCC1(Cc1ccc(Cl)cc1)Cc1ccc(Cl)cc1`, the GI50 in the test on A498 is 46 µM (inactive); in the test with A549 it was > 100 µM (inactive); in the test on CCRF-CEM, > 100 µM (inactive); in the test on DLD-1, > 100 µM (inactive); with EKVX, > 100 µM (inactive); in the test with HL-60, > 100 µM (inactive). Moreover, the GI50 is > 100 µM (inactive) in the test on KM12; > 100 µM (inactive) with NCI-H460; > 100 µM (inactive) with OVCAR-3; > 100 µM (inactive) with OVCAR-5; 64.6 µM (inactive) with OVCAR-8; 21.6 µM (inactive) in the test with SNB-75. The GI50 in the test on SW-620 and in the test on UACC-62 was > 100 µM (inactive) throughout.

In the case of `O=c1c2cc([N+](=O)[O-])ccc2n2n1CCCC2`, the GI50 in the test on A498, in the test on A549, in the test with CCRF-CEM, in the test with DU-145, in the test on EKVX and in the test with HCC 2998 was > 100 µM (inactive) each time. The GI50 in the test on HL-60, in the test on KM12, in the test on NCI-H460, in the test with OVCAR-3, in the test with OVCAR-5 and with OVCAR-8 was > 100 µM (inactive) each time. The GI50 in the test on SF-539, in the test on SNB-75, with SW-620 and in the test with UACC-62 was > 100 µM (inactive) each time.

As to `Cc1c2ccccc2c(C)n2c1nc1ccccc12`, the GI50 was 5.42 µM (inactive) in the test with A498; 4.37 µM (inactive) with A549; 5.06 µM (inactive) in the test with CCRF-CEM; 18.5 µM (inactive) in the test on DU-145; 14 µM (inactive) in the test on EKVX; 5.43 µM (inactive) with HCC 2998. In addition, the GI50 with HL-60 was 83 µM (inactive); with KM12, 7.53 µM (inactive); with NCI-H460 it was 4.1 µM (inactive); with OVCAR-3, 5.41 µM (inactive); in the test with OVCAR-5 it was 16 µM (inactive); with OVCAR-8, 4.97 µM (inactive). In addition, the GI50 was 4.56 µM (inactive) with SF-539, 12.5 µM (inactive) in the test with SNB-75, 3.73 µM (inactive) in the test on SW-620 and 10.2 µM (inactive) in the test with UACC-62.
